Source: US20250101038A1, “COMPOUNDS” (priority 2021, published 2025)
“And” between values parts separate entries of the source, which are not always exact repeats. Equal values may be shown once. Read-outs that look alike come from different tables or passages of the source.

Experiments:
5-HT2B receptor = target: T1, 5-HT2B receptor (Homo sapiens, UniProt P41595); assay: cell-based; settings: agonist activity, Ca2+ flux, CHO-K1 cells
T1 construct: host or cells: CHO-K1

[1] = In vivo pharmacokinetics, plasma and brain exposure after IP dosing; set-up: species or system male C57BL/6 mice; settings: for B:P Ratio, Individual / Plasma Concentration, Individual / concentration at 0.5 h / concentration at 0.083 h / concentration at 4 h / Kp at 0.083 h / Kp at 0.5 h / Kp at 4 h: 10 mg/kg; for Kp at 0.083 h / Kp at 0.5 h / Kp at 4 h: brain/plasma; for Cmax / Tmax / AUC(0-inf) / half-life: mouse, male C57BL/6 mice; for AUC(0-inf): read-out: Plasma AUC0-inf; for half-life: read-out: Apparent T1/2 (converted)
Procedure: The systemic exposure of selected examples was studied in non-fasted male C57BL/6 mice weighing between 18.9-25.5 g. Mice had access to food and water ad libitum throughout the pre- and post-dose sampling period.
On the day of dosing, the formulation of each compound was prepared by dissolving solid compound in phosphate buffer saline (50 mM) using vortexing, creating colourless solutions (pH 6.4-6.5) for each compound.
Compounds were dosed to mice by IP injection (10 mL/kg dose volume via a 27G needle; n=9 mice per compound) and blood samples were collected at 5 and 30 min; 1, 2 and 4 h post-dose (n=3 mice per time point for each compound). A maximum of three blood samples were obtained from each mouse, with plasma samples being taken via submandibular bleed (approximately 120 μL). Once collected, blood samples were centrifuged immediately, supernatant plasma was removed, and stored at −80° C. until analysis by LCMS. In addition, at the 5 and 30 min and 4 h post-dose time points, the whole brain was rapidly removed from the carcass soon after the blood collection. The whole brains were blotted to remove excess blood, placed into pre-weighed polypropylene vials, and weighed. The brains were snap frozen in dry ice and subsequently stored frozen (−80° C.) until analysis.
Concentrations of test compound in plasma and tissue samples were determined using an LCMS/MS method validated for linearity, accuracy, precision, matrix factor and recovery (Table 2). Test compound standard solutions were diluted from a concentrated stock solution (32 mM in H2O) using 50% can in H2O (v/v) and a calibration curve was prepared in a matched matrix to the test samples.
Plasma: The plasma calibration curve was prepared by spiking aliquots of blank mouse plasma (25 μL) with test compound standard solutions (5 μL) and internal standard solution (5 μL of diazepam, 5 μg/mL in 50% acetonitrile in water). Test plasma samples (25 μL) were thawed, mixed, and then spiked with internal standard solution (5 μL). Plasma protein precipitation was performed by addition of acetonitrile (3-fold volume ratio) and thorough vortex mixing. Samples were centrifuged (RCF=9391×g) for 3 minutes and the supernatant (90 μL) was collected for analysis.
Tissue: Pre-weighed tissue samples (brain) were homogenised using a glass rod in buffer containing an EDTA/potassium fluoride solution (0.1 M/4 mg/mL) as a stabilisation cocktail to minimise the potential for ex vivo degradation (3 mL cocktail/g tissue). The tissue homogenate was briefly centrifuged (RCF=79×g) for 10 seconds to separate the foam layer before transferring an aliquot of the tissue homogenate (200 μL) to a fresh Eppendorf tube for sample extraction. Calibration standards were prepared by spiking blank brain homogenate (200 μL) with the solution standards (10 μL) and the internal standard (10 μL). Study samples were similarly prepared, except that acetonitrile (10 μL) was added instead of solution standards to maintain the same volume. Protein precipitation was carried out by the addition of a 3-fold volume of acetonitrile, followed by vortex mixing and centrifugation (RCF=9391×g) for 3 min to recover the supernatant for analysis.
Replicate analysis: Triplicate analytical replicate (ARs) samples were prepared similarly to the standards for each sample type at three concentrations (50, 500 and 2,000 ng/ml) and repeat injections of these ARs were included throughout the analytical run to assess assay performance. The extraction of the test compound from the standards and ARs were conducted as described above.

5-HT2A receptor = target: T2, 5-HT2A receptor (Homo sapiens, UniProt P28223); assay: FLIPR Ca2+ flux functional assay, 5-HT2A; format: cell-based; settings: agonist activity, Ca2+ flux, HEK293 cells
T2 construct: host or cells: HEK293

[2] = tested on: ARS-TST mouse model of depression; assay: Acute restraint stress tail suspension test (ARS-TST); format: in vivo; settings: male ICR mice, intraperitoneal, tested 10 minutes after treatment
Procedure: Male ICR mice (23±3 g) were purchased from BioLASCO (Taipei, Taiwan) at 4-5 weeks of age and allowed 5-7 days to acclimate to the animal research facility at Pharmacology Discovery Services (Taipei, Taiwan). Mice were housed in groups of 10 in a large cage (47×25×15 cm) on a 12-hour light cycle (lights on: 0700) and provided ad libitum food and water except during acute restraint stress and tail-suspension testing. Temperature was maintained at 20-24° C., and all rooms (colony and testing rooms) had similar lighting intensity. All aspects of this work including housing, experimentation, and animal disposal were performed in accordance with the “Guide for the Care and Use of Laboratory Animals: Eighth Edition” (The National Academies Press, Washington, DC, 2011) in a facility accredited by the Association for Assessment and Accreditation of Laboratory Animal Care. […]
Tail Suspension Test (TST) Procedure: Mice were individually suspended on the edge of a shelf, 58 cm above a tabletop, using adhesive tape placed approximately 1 cm from the tip of the tail, for a total duration of 7 minutes. Using a stopwatch, the experimenters blinded to treatment groups recorded the duration of immobility (defined as hanging passively and motionless) during the 5 minutes spanning from 2-7 minutes. The data from 0-2 minutes was not recorded. […]

[3] = 0.083 h, IP 10 mg/kg, individual mouse
[4] = 0.083 h, IP 10 mg/kg, individual mouse, read-out: Brain Parenchyma Concentration, Individual
[5] = 0.5 h, IP 10 mg/kg, individual mouse
[6] = 0.5 h, IP 10 mg/kg, individual mouse, read-out: Brain Parenchyma Concentration, Individual
[7] = 4 h, IP 10 mg/kg, individual mouse
[8] = 4 h, IP 10 mg/kg, individual mouse, read-out: Brain Parenchyma Concentration, Individual
[9] = male, C57BL/6, mouse, brain, ip, 0.083 h, n = 3, read-out: Brain Parenchyma Concentration, Mean ± SD
[10] = male, C57BL/6, mouse, brain, ip, 0.5 h, individual mouse, read-out: Brain Parenchyma Concentration, Individual
[11] = male, C57BL/6, mouse, brain, ip, 0.5 h, n = 3, read-out: Brain Parenchyma Concentration, Mean ± SD
[12] = male, C57BL/6, mouse, brain, ip, 4 h, n = 3, read-out: Brain Parenchyma Concentration, Mean ± SD
[13] = male, C57BL/6, mouse, ip, 0.083 h, individual mouse, read-out: B:P Ratio, Individual
[14] = male, C57BL/6, mouse, ip, 0.083 h, n = 3, read-out: B:P Ratio, Mean ± SD
[15] = male, C57BL/6, mouse, ip, 0.5 h, individual mouse, read-out: B:P Ratio, Individual
[16] = male, C57BL/6, mouse, ip, 0.5 h, n = 3, read-out: B:P Ratio, Mean ± SD
[17] = male, C57BL/6, mouse, ip, 4 h, individual mouse, read-out: B:P Ratio, Individual
[18] = male, C57BL/6, mouse, ip, 4 h, n = 3, read-out: B:P Ratio, Mean ± SD
[19] = male, C57BL/6, mouse, plasma, ip, 0.083 h, individual mouse, read-out: Plasma Concentration, Individual
[20] = male, C57BL/6, mouse, plasma, ip, 0.083 h, n = 3, read-out: Plasma Concentration, Mean ± SD
[21] = male, C57BL/6, mouse, plasma, ip, 0.5 h, individual mouse, read-out: Plasma Concentration, Individual
[22] = male, C57BL/6, mouse, plasma, ip, 0.5 h, n = 3, read-out: Plasma Concentration, Mean ± SD
[23] = male, C57BL/6, mouse, plasma, ip, 4 h, n = 3, read-out: Plasma Concentration, Mean ± SD

T1 sequence (P41595 whole entry): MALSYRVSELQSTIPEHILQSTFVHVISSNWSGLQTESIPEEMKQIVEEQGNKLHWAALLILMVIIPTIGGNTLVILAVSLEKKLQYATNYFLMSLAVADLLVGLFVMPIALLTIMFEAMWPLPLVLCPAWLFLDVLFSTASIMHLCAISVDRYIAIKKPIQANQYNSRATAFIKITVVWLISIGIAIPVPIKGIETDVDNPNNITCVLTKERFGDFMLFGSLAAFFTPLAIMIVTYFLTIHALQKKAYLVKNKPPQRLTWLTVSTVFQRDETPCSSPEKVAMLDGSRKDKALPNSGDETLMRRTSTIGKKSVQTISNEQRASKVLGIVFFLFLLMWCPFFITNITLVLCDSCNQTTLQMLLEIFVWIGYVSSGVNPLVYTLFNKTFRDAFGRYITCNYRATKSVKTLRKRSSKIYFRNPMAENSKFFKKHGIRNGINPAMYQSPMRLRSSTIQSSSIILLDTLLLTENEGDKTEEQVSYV
T2 sequence (P28223 whole entry): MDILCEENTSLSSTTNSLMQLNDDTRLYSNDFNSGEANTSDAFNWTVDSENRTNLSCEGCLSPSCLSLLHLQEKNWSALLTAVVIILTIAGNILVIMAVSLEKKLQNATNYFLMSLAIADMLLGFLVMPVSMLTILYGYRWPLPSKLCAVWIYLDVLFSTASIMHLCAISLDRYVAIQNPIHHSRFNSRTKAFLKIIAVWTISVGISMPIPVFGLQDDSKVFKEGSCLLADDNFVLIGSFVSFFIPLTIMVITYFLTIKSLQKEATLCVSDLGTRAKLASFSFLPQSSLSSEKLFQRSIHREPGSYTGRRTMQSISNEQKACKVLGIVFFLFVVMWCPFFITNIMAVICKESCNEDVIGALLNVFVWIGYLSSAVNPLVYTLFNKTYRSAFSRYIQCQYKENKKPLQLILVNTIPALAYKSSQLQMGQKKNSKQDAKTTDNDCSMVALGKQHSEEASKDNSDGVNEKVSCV

Row | SMILES | Emax (5-HT2B receptor) [%] | B:P Ratio, Individual [1, 3] | Plasma Concentration, Individual [1, 3] | concentration at 0.5 h [1, 4] | B:P Ratio, Individual [1, 5] | Plasma Concentration, Individual [1, 5] | concentration at 0.5 h [1, 6] | B:P Ratio, Individual [1, 7] | Plasma Concentration, Individual [1, 7] | concentration at 0.5 h [1, 8] | concentration at 0.083 h [1, 9] [µM] | concentration at 0.5 h [1, 10] [µM] | concentration at 0.5 h [1, 11] [µM] | concentration at 4 h [1, 12] [µM] | Kp at 0.083 h [1, 13] | Kp at 0.083 h [1, 14] | Kp at 0.5 h [1, 15] | Kp at 0.5 h [1, 16] | Kp at 4 h [1, 17] | Kp at 4 h [1, 18] | other results
1 | CCN(C)CCc1c[nH]c2ccc(OC)c(C)c12 [Example P-37, N-ethyl-2-(5-methoxy-4-methyl-1H-indol-3-yl)-N-methylethan-1-amine] | 30.9 | 6.9 and 8.6 | 2.21 µM and 2.12 µM | 31.6 µM and 15.2 µM and 18.1 µM | 18 and 16 | 1.15 µM and 1.48 µM | 20.6 µM and 24.3 µM | 15 | 0.0091 µM and 0.0104 µM | 0.134 µM and 0.152 µM | 21.6 ± 8.76 | 25.9 | 23.6 ± 2.74 | 0.129 ± 0.0255 | 9.4 | 8.3 ± 1.3 | 20 | 18 ± 2 | 13 | 14 ± 1.2 | concentration at 4 h ([1]; male, C57BL/6, mouse, brain, ip, 4 h, individual mouse, read-out: Brain Parenchyma Concentration, Individual): 0.102 µM; concentration at 0.083 h [1, 19]: 3.36 µM; concentration at 0.083 h [1, 20]: 2.56 ± 0.0691 µM; concentration at 0.5 h [1, 21]: 1.28 µM; concentration at 0.5 h [1, 22]: 1.3 ± 0.162 µM; concentration at 4 h ([1]; male, C57BL/6, mouse, plasma, ip, 4 h, individual mouse, read-out: Plasma Concentration, Individual): 0.0081 µM; concentration at 4 h [1, 23]: 0.0092 ± 0.0012 µM; Cmax ([1]; plasma, IP 10 mg/kg): 2.56 µM; Tmax ([1]; plasma, IP 10 mg/kg): 4.98 min; AUC(0-inf) ([1]; plasma, IP 10 mg/kg): 1.72 µM·h; half-life ([1]; IP 10 mg/kg, plasma): 30 min; Emax (5-HT2A receptor): 80.3%; immobility time [2]: decrease immobility time
2 | CCN(C)CCc1c[nH]c2c(C)cc(OC)cc12 [Example P-51, N-ethyl-2-(5-methoxy-7-methyl-1H-indol-3-yl)-N-methylethan-1-amine] | 0.85 | 6.1 and 4.0 | 5.38 µM and 7.55 µM | 33.0 µM and 30.4 µM | 11 and 9.2 | 4.49 µM and 3.79 µM | 49.3 µM and 35.0 µM | 8.4 and 8.7 | 0.0254 µM and 0.0505 µM and 0.111 µM | 0.230 µM and 0.424 µM and 0.958 µM | 30.7 ± 2.2 | 25.5 | 36.6 ± 12 | 0.538 ± 0.377 | 4.5 | 4.9 ± 1.1 | 7.4 | 9.2 ± 1.8 | 9.1 | 8.7 ± 0.33 | concentration at 0.083 h ([1]; male, C57BL/6, mouse, brain, ip, 0.083 h, individual mouse, read-out: Brain Parenchyma Concentration, Individual): 28.6 µM; concentration at 0.083 h [1, 19]: 6.37 µM; concentration at 0.083 h [1, 20]: 6.43 ± 1.09 µM; concentration at 0.5 h [1, 21]: 3.46 µM; concentration at 0.5 h [1, 22]: 3.91 ± 0.529 µM; concentration at 4 h [1, 23]: 0.0622 ± 0.0439 µM; Cmax ([1]; plasma, IP 10 mg/kg): 6.43 µM; Tmax ([1]; plasma, IP 10 mg/kg): 4.98 min; AUC(0-inf) ([1]; plasma, IP 10 mg/kg): 5.39 µM·h; half-life ([1]; IP 10 mg/kg, plasma): 36 min; Emax (5-HT2A receptor): 69.2%; immobility time [2]: decrease immobility time
